pIC50: −log10 of the molar value.
Assays:
human MEK1 = human MEK1 (Homo sapiens, UniProt Q02750, S218E/S222E); assay: MEK-1 Enzyme Assay (LANCE-HTRF); format: biochemical; conditions: MEK-1 EE, ERK-2K52A substrate, 9 uM ATP, 1.5 hrs
Method: Assay 1: MEK-1 Enzyme Assay (LANCE-HTRF)
Inhibition of human MEK1 kinase activity was monitored with a homogenous, fluorescence-based assay. The assay uses time resolved fluorescence resonance energy transfer to probe for phosphorylation of ERK1 by MEK1. The detailed procedure is described in the following:
Constititutively active MEK-1 EE (150 ng/well) and ERK-2K52A (110 ng/well) were incubated in black, 384 well Optiplates (Perkin Elmer) for 1.5 hrs at room temperature, in the presence of increasing concentrations of inhibitors. The total reaction volume was 50 ul. The inhibitors were serial diluted in kinase buffer (9 uM ATP, 50 mM Tris-Hcl pH 8.0, 10 mM MgCl2, 1 mM DTT and 100 uM Na3VO4), to a final concentration of 1% DMSO. At the end of the incubation, the enzyme reaction was quenched by adding 50 ul of assay buffer containing 50 mM Tris-Hcl, 50 mM EDTA, 0.1% BSA and a mixture of 1.25 ug/mL europium labeled anti-phosphotyrosine mAb (Perkin Elmer) and 5 ug/mL of allophycocyanin labeled anti-GST antibody (CIS-US). Plates were agitated on a plate shaker for 30 minutes and the phosphorylation of the ERK-2K52A substrate was measured by homogeneous time resolved fluorescence (HTRF) at 340 nm excitation and […] emission filters on the VICTOR V fluorescence plate reader. Phosphorylation is expressed as a ratio of 665 nM signal×10,000/615 nM signal. To assess the inhibitory potential of the compounds, IC50-values were determined.

Murine colon C26 cells = assay: Tumor Cell Proliferation Assay (ATP Lite), C26; format: cell-based; conditions: Mus musculus, 96 h, 4 days, ATPlite
Method: (§1) Assay 2: Tumor Cell Proliferation Assays (ATP Lite)
(§2) Murine colon C26 (1500 cells/well), human melanoma A375 (2000 cells/well), or human pancreatic MiaPaCa-2 cells (2000 cells/well) were plated in white, 96 well plates (Corning) in growth media (DMEM with 10% fetal bovine serum, 2 mM glutamine for C26 and MiaPaCa-2, and RPMI with 10% fetal bovine serum, 2 mM glutamine for A375) and cultured overnight at 37° C. in a humidified, 5% CO2 incubator. Inhibitors were serially diluted in 100% DMSO and subsequently added to the cells, in growth media, to reach a final concentration of 0.25% DMSO. The cells were incubated for 4 days in the presence of the test compounds and the proliferation was quantitated using the ATPlite cell proliferation kit (Packard).

[1] = tested on: human melanoma A375 cells; assay: Tumor Cell Proliferation Assay (ATP Lite), A375; format: cell-based; conditions: A-375, 96 h, 4 days, ATPlite
Method: as §1, §2

[2] = tested on: human pancreatic MiaPaCa-2 cells; assay: Tumor Cell Proliferation Assay (ATP Lite), MiaPaCa-2; format: cell-based; conditions: MIA PaCa-2, 96 h, 4 days, ATPlite, read-out: MiaPaCa2 cell proliferation IC50
Method: as §1, §2

A375 Xenograft = assay: Tumor Growth Inhibition in A375 Xenograft Studies (Malignant Melanoma Model); format: in vivo, nude (nu/nu) mice; conditions: A375 xenograft in male nude mice, to Day 14
Method: In vivo Efficacy Evaluation: Tumor Growth Inhibition in A375 Xenograft Studies (Malignant Melanoma Model)
Male nude (nu/nu) mice (100 total, 24-26 g body wt) were purchased from Charles River Laboratories. Animals were injected subcutaneously above the right foreleg with 5×10^6 A375 cells in 100 ul of PBS. Tumors were measured with calipers 4, 7, 11 and 14 days after cells were implanted. Tumor length (l) and width (w) were measured and tumor volume was calculated with the equation l*w^2/2. At 16 days after cancer cells were implanted, tumors had reached an average volume of 93 mm^3, at which time the animals were sorted into 6 groups so that each group had the same mean tumor volume. The vehicle used for dosing the compound in suspension was 10% Tween 80 in water.
Treatments began on the afternoon of the 16th day after cancer cell injections, which was designated as Day 0. Tumor volume and body weight was measured for each animal 3 times per week until Day 14. On Day 14, all animals were euthanized, tumors removed and weighted.

Chain of human MEK1 (Q02750 whole entry S218E/S222E): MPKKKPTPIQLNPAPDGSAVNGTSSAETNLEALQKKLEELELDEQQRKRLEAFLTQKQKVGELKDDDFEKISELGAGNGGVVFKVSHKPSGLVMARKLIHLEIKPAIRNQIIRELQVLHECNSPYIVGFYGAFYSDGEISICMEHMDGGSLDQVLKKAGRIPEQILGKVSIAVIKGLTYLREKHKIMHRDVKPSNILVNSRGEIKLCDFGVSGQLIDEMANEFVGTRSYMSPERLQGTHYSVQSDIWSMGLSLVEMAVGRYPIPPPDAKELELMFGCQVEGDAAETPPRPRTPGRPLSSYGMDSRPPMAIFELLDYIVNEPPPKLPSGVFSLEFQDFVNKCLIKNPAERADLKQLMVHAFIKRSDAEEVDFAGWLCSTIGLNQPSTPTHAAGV

Row | Compound | pIC50 (human MEK1) | pIC50 (Murine colon C26 cells) | pIC50 [1] | pIC50 [2] | effect on tumor growth (A375 Xenograft; dose of 0.5 mg/kg) | effect on tumor growth (A375 Xenograft; dose of 10 mg/kg)
1 | Nc1nnc(-c2ccncc2Nc2ccc(I)cc2F)o1 [Example 2, [4-(5-Amino-[1,3,4]oxadiazol-2-yl)-pyridin-3-yl]-(2-fluoro-4-iodo-phenyl)-amine] | ≥ 5.52 | ≥ 5.52 | ≥ 5.52 | ≥ 5.52 | significant tumor growth inhibition | tumor regression
2 | Cc1cc(I)ccc1Nc1cnccc1-c1nnc(N)o1 [Example 29, [4-(5-Amino-[1,3,4]oxadiazol-2-yl)-pyridin-3-yl]-(4-iodo-2-methyl-phenyl)-amine] | ≥ 5.52 | ≥ 5.52 | ≥ 5.52 | ≥ 5.52 |  | 
3 | Nc1nnc(-c2ccncc2Nc2ccc(Br)cc2Br)o1 [Example 14, [4-(5-Amino-[1,3,4]oxadiazol-2-yl)-pyridin-3-yl]-(2,4-dibromo-phenyl)-amine] | ≥ 5.52 | ≥ 5.52 | ≥ 5.52 | ≥ 5.52 |  | 
4 | COC(=O)CNc1nnc(-c2ccncc2Nc2ccc(I)cc2F)o1 [Example 43, {5-[3-(2-Fluoro-4-iodo-phenylamino)-pyridin-4-yl]-[1,3,4]oxadiazol-2-ylamino}-acetic acid methyl ester] | ≥ 5.52 | ≥ 5.52 | ≥ 5.52 | 4.60 to 5.52 |  | 
5 | CNc1nnc(-c2ccncc2Nc2ccc(I)cc2F)s1 [Example 7, (2-Fluoro-4-iodo-phenyl)-[4-(5-methylamino-[1,3,4]thiadiazol-2-yl)-pyridin-3-yl]-amine] | ≥ 5.52 | ≥ 5.52 | ≥ 5.52 | ≥ 5.52 |  | 
6 | Fc1cc(I)ccc1Nc1cnccc1-c1nnc(NCCCN2CCOCC2)o1 [Example 19, (2-Fluoro-4-iodo-phenyl)-{4-[5-(3-morpholin-4-yl-propylamino)-[1,3,4]oxadiazol-2-yl]-pyridin-3-yl}-amine] | ≥ 5.52 | ≥ 5.52 | ≥ 5.52 | ≥ 5.52 |  | 
7 | Fc1cc(I)ccc1Nc1cnccc1-c1nnc(NCC2CCCO2)o1 (stereo not drawn) [Example 49, (2-Fluoro-4-iodo-phenyl)-(4-{5-[(tetrahydro-furan-2-ylmethyl)-amino]-[1,3,4]oxadiazol-2-yl}-pyridin-3-yl)-amine] | ≥ 5.52 | ≥ 5.52 | ≥ 5.52 | ≥ 5.52 |  | 
8 | Cn1c(-c2ccncc2Nc2ccc(I)cc2F)n[nH]c1=O [Example 55, 5-[3-(2-Fluoro-4-iodo-phenylamino)-pyridin-4-yl]-4-methyl-2,4-dihydro-[1,2,4]triazol-3-one] | ≥ 5.52 | ≥ 5.52 | ≥ 5.52 | ≥ 5.52 |  | 
9 | CCOC(=O)C(C)Nc1nnc(-c2ccncc2Nc2ccc(I)cc2F)o1 (stereo not drawn) [Example 52, 2-{5-[3-(2-Fluoro-4-iodo-phenylamino)-pyridin-4-yl]-[1,3,4]oxadiazol-2-ylamino}-propionic acid ethyl ester] | ≥ 5.52 | ≥ 5.52 | ≥ 5.52 | ≥ 5.52 |  | 
10 | Nc1nnc(-c2cc[n+]([O-])cc2Nc2ccc(I)cc2F)o1 [Example 27, [4-(5-Amino-[1,3,4]oxadiazol-2-yl)-1-oxy-pyridin-3-yl]-(2-fluoro-4-iodo-phenyl)-amine] | ≥ 5.52 | ≥ 5.52 | ≥ 5.52 | ≥ 5.52 |  | 
